The source of these data is US10953042B2, “Vanadium insulin-mimetics, methods of preparation, and methods for treatment of diabetes” (The University of Trinidad and Tobago, priority 2017, dated 2021).

Like-named read-outs stand apart in the source and are kept apart here.

The conditions of data set [1]: free state; cited from earlier work.
Data set [2] deals with STZ induced diabetic mice. As for the experimental part:
Streptozotocin (STZ; 2-deoxy-2-(3-methyl-3-nitrosoureido)-D-glucopyranose), a diabetogenic agent having the ability to induce pancreatic β-cell toxicity, is one of the chemicals used worldwide to induce diabetes in a simple and convenient method.
Adult albino mice, Mus musculus, three months old, weighing 30±5 g were procured from Sri Raghavendra Enterprises, Bangalore and acclimatized to laboratory conditions (12:12 hr dark/light, 25±2° C.) for one week. During acclimatization and thereafter, mice were maintained on standard rodent pellet and tap water ad libitum in accordance with ethical guidelines for animal care and experimentation.
Six (6) groups with six mice each were used. […] Group II became the positive control. […] On the fifth day after the first administration, blood was collected by tail pricking and blood glucose levels measured using an ACCU-CHECK® glucometer on a daily basis. Subsequently each group was given its respective second and subsequent doses through intraperitoneal injection.

The subject of data set [3] is STZ-induced diabetic rats. To be noted: for blood glucose level: 75 mg/kgbw intraperitoneal once every five days.
Procedure: Healthy adult male albino Rattus norvegicus Wistar rats, weighing 170-200 g were procured from Sri Raghavendra Enterprises, Bangalore, Karnataka, India. Studies were conducted in accordance with the guidance for the care and standard experimental animal ethical protocols. Animals were acclimated for a week, maintained at room temperature of 25±2° C. with 12-h dark-light cycle and given tap water and a standard rodent pellet diet ad libitum.
Six (6) groups with six rats each were used. Group I consisted of control animals and diabetes was induced in 12 hour fasted rats in Groups II-VI by a single intraperitoneal 60 mg/kgbw dose of STZ dissolved in freshly prepared 0.1 mol/L citrate buffer (pH 4.5). Blood samples obtained by sequential snipping of the tail and blood glucose levels measured using an ACCU-CHECK® glucometer on a daily basis. […] Group II became the positive control.
The dose-response of the drug was monitored for a period of 30 and 90 days using differential grades of drug at doses of 1, 10, 25, 50, 75, and 100 mg/kgbw administered once every five days. On the fifth day after the first administration, blood was collected and blood glucose levels measured using an ACCU-CHECK® glucometer. Subsequently each group was given its respective second and subsequent doses through intraperitoneal injection.
(§1) The following values were determined spectrophotometrically: (a) daily blood glucose levels (via Accu-check glucometer kit, Roche Diagnostics India); (b) hepatic glycogen (see Seifter et al., (1950) Arch Biochem 25(1):191-200); (c) glycosylated hemoglobin (see Sudhakar and Pattabiraman (1981) Clin Chim Acta 109:267-274); (d) blood urea nitrogen (BUN); (e) serum creatinine (see Hare (1950) Proc Soc Exp Biol Med 74:148-151); and (f) hepatic enzymes (AST, ALT) (see Reitman and Frankel (1957) Am J Clin Pathol 28:56-63).
(§2) Biostatistical analysis was conducted using SPSS 20.0 software. Analysis of variance (one-way ANOVA) was performed with the Tukey HSD post hoc test.
Data set [4] concerns STZ-induced diabetic rats. To be noted: for blood glucose levels: 100 mg/kgbw oral once every five days.
Procedure: as §1, §2
The dose-response of the drug was monitored for a period of 30 and 90 days using drug doses of 100 and 200 mg/kgbw administered once every five days. Spectrophotometric measurements and statistical analysis were obtained as in Example 2.

`O=C(O)c1cccc(C(=O)O)n1` [dipicolinic acid, Pyridine-2,6-dicarboxylic acid]: the toxicity result in data set [1] was “nontoxic”.

For the molecule “(Diaqua)(2,6-pyridine diacetyl-carboxylato)oxovanadium(IV) [Complex 1]”, the hyperglycemic condition result in data set [2] (250 mg/kgbw intraperitoneal, 30 days, data not shown) is listed as “reduced the hyperglycemic condition in a steady state for a period of 30 days”. The blood glucose level result in data set [2] (250 mg/kgbw intraperitoneal, multiple doses once every 5 days) was “stable and sustainable blood glucose level throughout the study”; in data set [2] (the other doses (50, 150, 300 mg/kgbw) intraperitoneal), “irregularity in maintaining the reduced levels”; in data set [3] (after 30 days), 135 mg/dL; in data set [3] (three months (90 days), P<0.05), 118.7 mg/dL. Further, the insulin levels entry in data set [3] (75 mg/kgbw intraperitoneal, compared to the control (FIG. 24)) is listed as “significantly reducing insulin levels as compared to the control”; in data set [4] (oral, compared to the control (FIG. 25)), “significant reduction in insulin levels as compared to the control”. The glycogen level in data set [3] (75 mg/kgbw intraperitoneal, day 30, hepatic glycogen) is given as 2.01 mg/g tissue; in data set [3] (75 mg/kgbw intraperitoneal, day 90, hepatic glycogen), 2.00 mg/g tissue. For the same molecule, the blood glucose levels in data set [4] (day 30) is 108 mg/dL; in data set [4] (day 90), 102 mg/dL. The glycogen levels entry in data set [4] (oral (FIG. 18)) is reported as “significant effect on increasing the glycogen levels”.
